Patent US20170000133A1, “BENZOXABOROLE FUNGICIDES” (SYNGENTA PARTICIPATIONS AG, priority 2013, published 2017)

Key:
[1] = tested on: Pythium ultimum; assay: Pythium ultimum / liquid culture (seedling damping off); format: cell-based; settings: Globisporangium ultimum; 200 ppm; potato dextrose broth, 24° C., 2-3 days after application; read-out: disease control (inhibition of growth determined photometrically)
[2] = tested on: Glomerella lagenarium (Colletotrichum lagenarium); assay: Glomerella lagenarium (Colletotrichum lagenarium) / liquid culture (anthracnose); format: cell-based; settings: Colletotrichum orbiculare, PDB potato dextrose broth, 24° C., 3-4 days after application, read-out: disease control (inhibition of growth measured photometrically)
Summary of the method: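 Compound was applied at 200 ppm from DMSO solution, then potato dextrose broth carrying cryostored fungal spores was added. Growth inhibition was measured by photometry after 3-4 days of incubation at 24° C.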

[3] = tested on: Mycosphaerella arachidis (Cercospora arachidicola); assay: Mycosphaerella arachidis (Cercospora arachidicola) / liquid culture (early leaf spot); format: cell-based; settings: PDB potato dextrose broth, 24° C., 4-5 days after application, read-out: disease control (inhibition of growth determined photometrically)
Summary of the method: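 Test compound, applied at 200 ppm from DMSO solution, was combined with spore-containing potato dextrose broth. Photometric growth inhibition was scored after 4-5 days at 24° C.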

[4] = tested on: Monographella nivalis (Microdochium nivale); assay: Monographella nivalis (Microdochium nivale) / liquid culture (foot rot cereals); format: cell-based; settings: PDB potato dextrose broth, 24° C., 4-5 days after application, read-out: disease control (inhibition of growth determined photometrically)
[5] = tested on: Sclerotinia sclerotiorum; assay: Sclerotinia sclerotiorum / liquid culture (cottony rot); format: cell-based; settings: PDB potato dextrose broth, 24° C., 3-4 days after application, read-out: disease control (inhibition of growth determined visually)
Procedure: 18. Sclerotinia sclerotiorum/Liquid Culture (Cottony Rot): Mycelia fragments of a newly grown liquid culture of the fungus were directly mixed into nutrient broth (PDB potato dextrose broth). After placing a (DMSO) solution of the test compounds into a microtiter plate (96-well format) the nutrient broth containing the fungal material was added. The test plates were incubated at 24° C. and the inhibition of growth was determined visually 3-4 days after application.

[6] = tested on: Mycosphaerella graminicola (Septoria tritici); assay: Mycosphaerella graminicola (Septoria tritici) / liquid culture (Septoria blotch); format: cell-based; settings: Zymoseptoria tritici, PDB potato dextrose broth, 24° C., 4-5 days after application, read-out: disease control (inhibition of growth determined photometrically)
Summary of the method: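 Growth inhibition was read photometrically 4-5 days after application, following incubation at 24° C of fungal conidia in potato dextrose broth over test compound (200 ppm, from DMSO solution) in microtiter plates.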

[7] = tested on: Gaeumannomyces graminis; assay: Gaeumannomyces graminis / liquid culture (take-all of cereals); format: cell-based; settings: PDB potato dextrose broth, 24° C., 4-5 days after application, read-out: disease control (inhibition of growth determined photometrically)
Summary of the method: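 Growth inhibition measured photometrically 4–5 days post-application, following incubation at 24 °C. Test compound, applied from DMSO at 200 ppm, mixed with fungal mycelial fragments in potato dextrose broth.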

[8] = tested on: Fusarium culmorum; assay: microbe, parasite or virus in culture; format: cell-based; settings: read-out: disease control (inhibition of growth determined visually)
[9] = tested on: Thanatephorus cucumeris (Rhizoctonia solani); assay: Thanatephorus cucumeris (Rhizoctonia solani) / liquid culture (foot rot, damping-off); format: cell-based; settings: PDB potato dextrose broth, 24° C., 3-4 days after application, read-out: disease control (inhibition of growth determined photometrically)
Summary of the method: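 Photometric growth-inhibition readout taken 3-4 days after application, with cultures incubated at 24 °C. Test compound was applied at 200 ppm from DMSO solution to R. solani mycelial fragments in PDB.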

[10] = tested on: Plasmopara viticola; assay: whole plant or invertebrate; format: in vivo; settings: foliar, read-out: disease control
[11] = tested on: Puccinia recondita f. sp. tritici; assay: Puccinia recondita f. sp. tritici / wheat / leaf disc curative (brown rust); format: in vivo; settings: foliar, 192 h, wheat leaf segments, applied one day after inoculation, assessed 8 dpi, read-out: disease control
Procedure: 4. Puccinia recondita f. sp. tritici/Wheat/Leaf Disc Curative (Brown Rust) Wheat leaf segments are placed on agar in multiwell plates (24-well format). The leaf disks are then inoculated with a spore suspension of the fungus. One day after inoculation the test solution is applied. After appropriate incubation the activity of a compound is assessed 8 dpi (days after inoculation) as curative fungicidal activity. Dose range: 200-22 ppm.

[12] = tested on: Puccinia recondita f. sp. tritici; assay: Puccinia recondita f. sp. tritici / wheat / leaf disc preventative (brown rust); format: in vivo; settings: foliar, wheat leaf segments cv Kanzler, inoculated 1 day after application, assessed 7-9 days after application, read-out: disease control
Description: 3. Puccinia recondita f. sp. tritici/Wheat/Leaf Disc Preventative (Brown Rust): Wheat leaf segments cultivated variety (cv) Kanzler were placed on agar in 24-well plates and sprayed with formulated test compound diluted in water at an application rate of 200 ppm. The leaf disks were inoculated with a spore suspension of the fungus 1 day after application.

[13] = tested on: Botryotinia fuckeliana (Botrytis cinerea); assay: Botryotinia fuckeliana (Botrytis cinerea) / liquid culture (gray mould); format: cell-based; settings: Vogels broth, 24° C., 3-4 days after application, read-out: disease control (inhibition of growth determined photometrically)
Procedure: 10. Botryotinia fuckeliana (Botrytis cinerea)/Liquid Culture (Gray Mould): Conidia of the fungus from cryogenic storage were directly mixed into nutrient broth (Vogels broth). After placing a DMSO solution of test compound into a 96-well microtiter plate at an application rate of 200 ppm, the nutrient broth containing the fungal spores was added. The test plates were incubated at 24° C. and the inhibition of growth was determined photometrically 3-4 days after application.

Compound	inhibition at 200 ppm [1] [%]	inhibition at 200 ppm [2] [%]	inhibition at 200 ppm [3] [%]	inhibition at 200 ppm [4] [%]	inhibition at 200 ppm [5] [%]	inhibition at 200 ppm [6] [%]	inhibition at 200 ppm [7] [%]	inhibition at 200 ppm [8] [%]	inhibition at 200 ppm [9] [%]	pest or weed control at 200 ppm [10] [%]	pest or weed control at 200 ppm [11] [%]	pest or weed control at 200 ppm [12] [%]	inhibition at 200 ppm [13] [%]	melting point [°C]
Cc1csc(NC(=O)c2cc3c(cc2Cl)COB3O)n1 [Compound 147]	≥ 80	≥ 80	≥ 80	≥ 80	≥ 80									
C=CCOC(=O)c1cc2c(cc1Cl)COB2O [Compound 215]	≥ 80	≥ 80	≥ 80	≥ 80	≥ 80	≥ 80	≥ 80	≥ 80	≥ 80					
COC(=O)COC(=O)c1cc2c(cc1Cl)COB2O [Compound 230]	≥ 80	≥ 80	≥ 80	≥ 80	≥ 80	≥ 80	≥ 80	≥ 80	≥ 80	≥ 80	≥ 80			
C=C(C)COC(=O)c1ccc2c(c1)B(O)OC2 [Compound 339]	≥ 80	≥ 80	≥ 80	≥ 80		≥ 80	≥ 80		≥ 80	≥ 80	≥ 80			
C=CCC(OC(=O)c1ccc2c(c1)B(O)OC2)C(=O)OC (stereo not shown) [Compound 348]	≥ 80	≥ 80	≥ 80						≥ 80	≥ 80	≥ 80			
C#CCCOC(=O)c1ccc2c(c1)B(O)OC2 [Compound 355]	≥ 80	≥ 80	≥ 80	≥ 80		≥ 80	≥ 80		≥ 80	≥ 80	≥ 80			
COC(=O)COC(=O)c1ccc2c(c1)B(O)OC2 [Compound 356]	≥ 80	≥ 80	≥ 80	≥ 80			≥ 80		≥ 80	≥ 80	≥ 80	≥ 80		
O=C(OCC#Cc1ccccc1)c1ccc2c(c1)B(O)OC2 [Compound 359]	≥ 80		≥ 80	≥ 80	≥ 80	≥ 80	≥ 80	≥ 80	≥ 80	≥ 80			≥ 80	
COC(=O)C#CCOC(=O)c1ccc2c(c1)B(O)OC2 [Compound 361]	≥ 80	≥ 80	≥ 80	≥ 80	≥ 80	≥ 80	≥ 80	≥ 80	≥ 80	≥ 80			≥ 80	
O=C(OCC(F)F)c1ccc2c(c1)B(O)OC2 [Compound 365]	≥ 80		≥ 80				≥ 80			≥ 80	≥ 80			
O=C(OCc1cccc(F)c1)c1ccc2c(c1)B(O)OC2 [Compound 375]	≥ 80	≥ 80	≥ 80	≥ 80	≥ 80	≥ 80	≥ 80	≥ 80	≥ 80				≥ 80	125 to 127
CCC#CCOC(=O)c1cc2c(cc1F)COB2O [Compound 379]	≥ 80	≥ 80	≥ 80	≥ 80	≥ 80	≥ 80	≥ 80	≥ 80	≥ 80	≥ 80				
C=CCCOC(=O)c1cc2c(cc1F)COB2O [Compound 389]	≥ 80	≥ 80	≥ 80	≥ 80	≥ 80	≥ 80	≥ 80	≥ 80	≥ 80					107 to 109
COC(=O)C(C)OC(=O)c1cc2c(cc1F)COB2O (stereo not shown) [Compound 393]	≥ 80						≥ 80		≥ 80	≥ 80	≥ 80			
N#CCOC(=O)c1cc2c(cc1F)COB2O [Compound 401]	≥ 80									≥ 80	≥ 80			
C=C(C)COC(=O)c1cc2c(cc1F)COB2O [Compound 402]	≥ 80		≥ 80	≥ 80		≥ 80	≥ 80		≥ 80		≥ 80			
C=CCC(OC(=O)c1cc2c(cc1F)COB2O)C(=O)OC (stereo not shown) [Compound 410]	≥ 80			≥ 80	≥ 80		≥ 80		≥ 80	≥ 80				
C#CCCOC(=O)c1cc2c(cc1F)COB2O [Compound 418]	≥ 80		≥ 80	≥ 80	≥ 80	≥ 80	≥ 80		≥ 80	≥ 80	≥ 80			
COC(=O)C#CCOC(=O)c1cc2c(cc1F)COB2O [Compound 424]	≥ 80	≥ 80	≥ 80	≥ 80	≥ 80	≥ 80	≥ 80	≥ 80	≥ 80	≥ 80			≥ 80	112 to 114
COC(COC(=O)c1cc2c(cc1Cl)COB2O)OC [Compound 449]	≥ 80	≥ 80	≥ 80	≥ 80	≥ 80	≥ 80	≥ 80	≥ 80						122 to 124
